Activity calls are given as the source filed them. No cut-off for these calls is given here.
Columns and labels:
[1] = molecular target: T1, Gamma-hydroxybutyrate receptor (Rattus norvegicus, UniProt Q6RY99); experiment: Displacement of [3H]SUC from succinic acid binding site of gamma-hydroxybutyrate receptor in rat forebrain synaptic membranes
T1 sequence (Q6RY99 whole entry): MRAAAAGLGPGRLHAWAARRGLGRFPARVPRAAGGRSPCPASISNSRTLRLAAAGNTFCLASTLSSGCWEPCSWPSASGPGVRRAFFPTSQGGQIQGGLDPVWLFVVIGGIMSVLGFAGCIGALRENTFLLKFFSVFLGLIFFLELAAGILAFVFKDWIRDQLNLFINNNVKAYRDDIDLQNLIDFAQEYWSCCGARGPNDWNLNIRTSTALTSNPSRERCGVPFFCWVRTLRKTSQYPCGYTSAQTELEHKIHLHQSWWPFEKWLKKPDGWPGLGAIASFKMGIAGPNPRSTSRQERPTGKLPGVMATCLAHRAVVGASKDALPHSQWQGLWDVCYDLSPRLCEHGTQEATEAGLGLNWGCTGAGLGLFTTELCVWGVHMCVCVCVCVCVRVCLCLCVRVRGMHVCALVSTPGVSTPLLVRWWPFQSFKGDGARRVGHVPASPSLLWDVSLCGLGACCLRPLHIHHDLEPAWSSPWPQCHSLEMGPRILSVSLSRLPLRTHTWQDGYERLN

[2] = molecular target: Calcium/calmodulin-dependent protein kinase type II subunit alpha (Rattus norvegicus, UniProt P11275); experiment: Displacement of [3H]GHB from gamma-hydroxybutyrate binding site of gamma-hydroxybutyrate receptor in rat forebrain synaptic membranes; format: cell membranes, Membrane
Calcium/calmodulin-dependent protein kinase type II subunit alpha, sequence (P11275 whole entry): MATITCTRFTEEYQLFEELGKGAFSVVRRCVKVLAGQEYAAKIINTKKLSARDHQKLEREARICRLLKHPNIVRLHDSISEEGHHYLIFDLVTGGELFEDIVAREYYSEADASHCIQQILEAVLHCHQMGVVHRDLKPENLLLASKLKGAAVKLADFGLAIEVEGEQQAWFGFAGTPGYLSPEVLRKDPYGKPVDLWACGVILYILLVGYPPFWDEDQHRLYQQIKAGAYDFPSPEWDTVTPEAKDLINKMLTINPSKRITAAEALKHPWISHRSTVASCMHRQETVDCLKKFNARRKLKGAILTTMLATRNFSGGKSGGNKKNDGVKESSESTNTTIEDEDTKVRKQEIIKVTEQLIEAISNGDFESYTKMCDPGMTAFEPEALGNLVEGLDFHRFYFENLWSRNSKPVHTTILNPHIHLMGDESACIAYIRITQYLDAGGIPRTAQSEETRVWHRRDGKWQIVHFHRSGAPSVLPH

[3] = molecular target: T2, Gamma-hydroxybutyrate receptor (Rattus norvegicus) (UniProt Q6RY99); experiment: Binding affinity to succinic acid binding site of gamma-hydroxybutyrate receptor in rat forebrain synaptic membranes at 100 uM; format: cell membranes; conditions: Membrane
T2 sequence (whole entry): T1 sequence (Q6RY99 whole entry)

[4] = molecular target: T2, Gamma-hydroxybutyrate receptor (Rattus norvegicus); experiment: Binding affinity to gamma-hydroxybutyrate binding site of gamma-hydroxybutyrate receptor in rat forebrain synaptic membranes at 100 uM; format: cell membranes; conditions: Membrane

Compound O=C(O)/C=C1\CCCc2ccccc2[C@H]1O has an IC50 [1] of 74000 nM and an IC50 [2] of 93000 nM.
With O=C(O)[C@H]1C[C@H](O)CCN1 the Activity [3] was “inactive” and the Activity [4] was “inactive”.
In the case of COC(=O)[C@@H]1C[C@H](O)CCN1, the Activity [3] is reported as “inactive” and the Activity [4] is reported as “inactive”.
O=C(O)/C=C1\CCCc2ccccc2C1O (racemic) showed an IC50 [1] of 500 nM and an IC50 [2] of 900 nM.
With COC(=O)[C@H]1C[C@H](O)CCN1 the Activity [3] was “inactive” and the Activity [4] was “inactive”.
For O=C(O)/C=C1\CCCc2ccccc2[C@@H]1O, the IC50 [1] was 400 nM and the IC50 [2] was 800 nM.
Work on O=C(O)[C@H]1C[C@@H](O)CCN1 yielded an Activity [3] of 26% and an Activity [4] of 30%.
With O=C(O)[C@@H]1C[C@H](O)CCN1 the Activity [3] was “inactive” and the Activity [4] was “inactive”.
